Test results published in US3932664A, “Substituted phenoxyalkyl quaternary ammonium compounds as antiarrhythemic agents” (priority 1974, dated 1976).
Where two headings read alike, the source gives them in different places.

Key:
[1] = test system: ouabain-induced ventricular tachycardia in dogs; assay: conversion of ouabain-induced ventricular tachycardia to normal sinus rhythm in anesthetized dogs; assay type: in vivo, dog; details: for minimal effective dose: Canis lupus familiaris, iv, read-out: Conversion Dose
Text: Ventricular tachycardia is produced in dogs in a method similar to the method of Lucchesi and Hardman (J. Pharmacol. Exptl. Therap., 132, 372, 1961) by the administration of ouabain. In such operations, a dog is anesthetized by the intravenous administration of pentobarbital sodium at a dosage rate of 30 milligrams per kilogram. A femoral artery is cannulated with polyethylene tubing for measurements of blood pressure. A femoral vein is similarly cannulated for administration of ouabain and administration of the test compound. Hypodermic needle electrodes are employed for recording electrocardiograms. In such operations, ouabain is administered intravenously by infusion at a constant rate via the cannulated femoral vein. The infusion rate is 35 micrograms of ouabain per kilogram of animal body weight per hour. Within 1 to 1.5 hours following the start of the infusion, a ventricular tachycardia is seen to develop.
After ventricular tachycardia is observed, a test compound is administered intravenously by administration of varying amounts of a composition comprising 50 milligrams of the test compound as a sterile solution in 10 milliliters of water containing 0.9 percent sodium chloride. Each dose is administered slowly over a period of 15 to 30 seconds. The compound is administered at an initial dosage rate of 0.25 milligram of test compound per kilogram of animal body weight. Blood pressure and electrocardiogram are observed for 5 minutes after administration. When a complete conversion from the arrhythmic condition to normal sinus rhythm is not observed within the 5 minute period, a second dose of 0.50 milligram of the test compound per kilogram is administered by a similar procedure and blood pressure and heartbeat are similarly observed for 5 minutes. When complete conversion of the ventricular tachycardia to normal sinus rhythm is not observed, the dosage is increased two-fold every five minutes until complete conversion is obtained. The animal is then observed and the duration of the period of normal cardiac rhythm produced by administration of the test compound is recorded as the duration of antiarrhythmic activity. The termination of the period of normal activity is marked by the reappearance of ventricular tachycardia or fibrillation as indicated by the electrocardiogram observations. The antiarrhythmic dosage of test compound sufficient to bring about a complete conversion of the cuabain-induced tachycardia, and the duration of the period of normal cardiac activity are set out below.
The procedure of Example 26 is repeated, employing the compound of Example 1, [ 2-(4-amino-2,6-dibromophenoxy)-ethyl]-dimethyl(2-methylallyl)ammoniumchloride, as a test compound. In these operations two groups of three dogs each are administered the test compound intravenously at anti-arrhythmic dosage rates of 1 and 2 milligrams per kilogram after ectopic ventricular rhythms have been established by continuous infusion of cuabain.

[2] = blood and heart tissue levels in mice after intravenous and oral administration; assay type: in vivo; details: mouse; for concentration at 0.5 h: oral 6 mg/kg, thirty minutes after administration
Description: [2-(4-amino-2,6-dibromophenoxy)ethyl]dimethyl-(allyl)ammonium bromide is administered to mice intravenously and orally. The animals are thereafter sacrificed and blood and heart tissue analyses are carried out to ascertain the concentration of test compound present. In such operations mice intravenously administered the test compound at a rate of 6 milligrams per kilogram are found to have blood levels of 27 micrograms of test compound per milliliter 10 seconds after injection, 2.1 micrograms per milliliter 3 minutes after injection. Analysis of heart tissue indicates a concentration of 5.5 micrograms of test compound per gram of tissue 10 minutes after injection. Similar analyses are carried out with animals administered 6 milligrams of test compound per kilogram orally. Thirty minutes after oral administration, blood and heart levels of 1.1 and 5.1 micrograms, respectively, of test compound per milliliter of blood or gram of heart tissue, respectively, are found.

[3] = dog, intravenous, dose giving complete conversion of ouabain-induced tachycardia to normal sinus rhythm
[4] = dog, intravenous, at conversion dose 1 mg/kg
[5] = dog, intravenous, at conversion dose 2 mg/kg
[6] = dog, intravenous, at conversion dose 0.5 mg/kg

Row | SMILES | minimal effective dose [1, 3] | Duration (period of normal cardiac rhythm) [1, 4] | also measured
1 | C=CC[N+](C)(C)CCCOc1c(Br)cc(N)cc1Br.[Br-] [Example 17, [3-(4-amino-2,6-dibromophenoxy)propyl]dimethyl(allyl)ammonium bromide] | 1 mg/kg | 6 min | 
2 | C=CC[N+](CC)(CC)CCOc1c(Br)cc(N)cc1Br.[Br-] [Example 16, [2-(4-amino-2,6-dibromophenoxy)ethyl]diethyl(allyl)ammonium bromide] | 2 mg/kg |  | Duration (period of normal cardiac rhythm) [1, 5]: 6.5 min
3 | C[N+](C)(CCOc1c(Br)cc(N)cc1Br)Cc1ccc(Cl)c(Cl)c1 [Example 14] | 2 mg/kg |  | Duration (period of normal cardiac rhythm) [1, 5]: 14 min
4 | C[N+](C)(CC=CCl)CCOc1c(Br)cc(N)cc1Br [Example 10] | 1 mg/kg | 3 min | 
5 | C[N+](C)(CCOc1c(Br)cc(N)cc1Br)Cc1ccccc1 [Example 11] | 1 mg/kg | 8.5 min | 
6 | C[N+](C)(CCOc1c(Br)cc(N)cc1Br)CC(=O)c1ccc(Cl)c(Cl)c1 [Example 8] | 16 mg/kg |  | Duration (period of normal cardiac rhythm) ([1]; dog, intravenous, at conversion dose 16 mg/kg): 10 min
7 | C#CC[N+](C)(C)CCOc1c(Br)cc(N)cc1Br.[Br-] [Example 4, [2-(4-amino-2,6-dibromo-phenoxy)ethyl]dimethyl(2-propynyl)ammonium bromide] | 0.5 mg/kg |  | Duration (period of normal cardiac rhythm) [1, 6]: 24 min
8 | CCOC(=O)C[N+](C)(C)CCOc1c(Br)cc(N)cc1Br [Example 2, [2-(4-amino-2,6-dibromophenoxy)ethyl]dimethyl(ethylcarboxymethyl) ammonium bromide] | 1 mg/kg | 2.6 min | Duration (period of normal cardiac rhythm) [1, 5]: 3.5 min
9 | Nc1cc(Br)c(OCC[N+]23CCC(CC2)CC3)c(Br)c1 [Example 20, [2-(4-amino-2,6-dibromophenoxy)ethyl] quinuclidinium bromide] |  |  | minimal effective dose [1]: 0.5 mg/kg; Duration (period of normal cardiac rhythm) [1, 6]: 1 min
10 | C[N+](C)(CCO)CCOc1c(Br)cc(N)cc1Br [Example 7] | 1 mg/kg | 25 min | 
11 | Br.C=CC[N+]1(CCOc2c(Br)cc(N)cc2Br)CCCC1.[Br-] [Example 21, 1-[2-(4-amino-2,6dibromophenoxy)ethyl]-1-allyl pyrrolidinium bromide hydrobromide] | 2 mg/kg |  | Duration (period of normal cardiac rhythm) [1, 5]: 1.5 min
12 | C=CC[N+](C)(C)CCOc1c(Br)cc(N)cc1Br.[Br-] [Example 6, [2-(4-amino-2,6-dibromophenoxy)ethyl]dimethyl(allyl)ammonium bromide] | 1 mg/kg | 6 min | concentration at 10 s ([2]; blood, intravenous 6 mg/kg, 10 seconds after injection, read-out: blood level): 27000 ng/mL; concentration at 0.05 h ([2]; blood, intravenous 6 mg/kg, 3 minutes after injection, read-out: blood level): 2100 ng/mL; concentration at 0.5 h ([2]; blood, read-out: blood level): 1100 ng/mL; concentration at 10 min ([2]; heart, intravenous 6 mg/kg, 10 minutes after injection): 5500 ng/g; concentration at 0.5 h ([2]; heart, read-out: heart level): 5100 ng/g
13 | CC(=O)C[N+](C)(C)CCOc1c(Br)cc(N)cc1Br.[Cl-] [Example 5, [2-(4-amino-2,6-dibromophenoxy)ethyl]dimethyl(acetonyl)ammonium chloride] | 1 mg/kg | 11 min | 
14 | C[N+](C)(CC#N)CCOc1c(Br)cc(N)cc1Br.O=S(=O)([O-])c1ccccc1 [Example 18, [2-(4-amino-2,6-dibromophenoxy)ethyl]dimethyl(2-nitriloethyl)-ammonium benzenesulfonate] |  | 4 min | minimal effective dose [1]: 1 mg/kg
15 | C[N+](C)(CCOc1c(Br)cc(N)cc1Br)CCc1ccccc1 [Example 9] | 2 mg/kg |  | Duration (period of normal cardiac rhythm) [1, 5]: 3.5 min
16 | Cc1ccc[n+](CCOc2c(Br)cc(N)cc2Br)c1.[Br-] [Example 24, 1-[2-(4-amino-2,6-dibromo-phenoxy)ethyl]-3-picolinium bromide] | 0.5 mg/kg |  | Duration (period of normal cardiac rhythm) [1, 6]: 38 min
17 | C=CC[N+]1(CCOc2c(Br)cc(N)cc2Br)CCCCCC1 [Example 23, [2-(4-amino-2,6-dibromophenoxy)ethyl]-1-allylhexahydroazepinium bromide] | 0.5 mg/kg | 7.5 min | Duration (period of normal cardiac rhythm) [1, 6]: 3.3 min
18 | C[N+](C)(CCOc1c(Br)cc(N)cc1Br)Cc1ccc(Cl)cc1 [Example 12] | 1 mg/kg | 9.5 min | 
19 | C[N+](C)(CCOc1c(Br)cc(N)cc1Br)Cc1ccccc1Cl.[Cl-] [Example 3, [2-(4-amino-2,6-dibromophenoxy)-ethyl]dimethyl(2-chlorobenzyl)ammonium chloride] | 1 mg/kg | 12.5 min | 
20 | C=C(C)C[N+](C)(C)CCOc1c(Cl)cc(N)cc1Cl.[Cl-] [Example 15, [2-(4-amino-2,6-dichlorophenoxy)ethyl]dimethyl(2-methylallyl)-ammonium chloride] | 0.5 mg/kg |  | Duration (period of normal cardiac rhythm) [1, 6]: 4.5 min
21 | C=CC[N+](C)(C)CCCCOc1c(Br)cc(N)cc1Br.[Br-] [Example 25, [4-(4-amino-2,6-dibromophenoxy)-butyl]dimethyl(allyl) ammonium bromide] | 2 mg/kg |  | Duration (period of normal cardiac rhythm) [1, 5]: 26 min
22 | C=CC[N+](C)(C)CCOc1c(Br)cc(N)cc1Br.CS(=O)(=O)[O-] [Example 19, [2-(4-amino-2,6-dibromophenoxy)-ethyl]dimethyl(allyl)ammonium methanesulfonate] | 1 mg/kg | 17.5 min | Duration (period of normal cardiac rhythm) [1, 5]: 39.0 min
23 | Br.C=CC[N+]1(CCOc2c(Br)cc(N)cc2Br)CCCCC1.[Br-] [Example 22, 1-[2-(4-amino-2,6-dibromophenoxy)ethyl]-1-allyl piperidinium bromide hydrobromide] | 1 mg/kg | 6.5 min | 
24 | C[N+](C)(CCOc1c(Br)cc(N)cc1Br)Cc1ccc(Cl)cc1Cl [Example 13] | 0.5 mg/kg |  | Duration (period of normal cardiac rhythm) [1, 6]: 4 min
